# Source: patent EP1001769B1, “SOLUBLE PRODRUGS OF PACLITAXEL” (BAKER NORTON PHARMACEUTICALS, INC., priority 1997, dated 1998)
# Structures can show the parent of a compound that is named as a salt.
# Experiments:
# Type in all cases: physicochemical
# [1] = Stability of paclitaxel-2'-MPA solution in water/polyethylene glycol, analysed by HPLC
# Experimental: The onium salt paclitaxel-2'-MPA was prepared by the method of Nicolaou et al., Angew. Chim. Int. Engl., 33:1583-1587 ([…]). A 2.40 mg/ml solution of the paclitaxel-2'-MPA was prepared by dissolving the salt (10.2 mg) in a solution of water (3.024 ml) and polyethylene glycol (1.234 ml). Samples of this solution were frozen. The frozen samples were slowly warmed to room temperature and homogenized with CH3CN (50 µl). An aliquot (50 µl) was removed and diluted to a final volume of 200 µl with deionized H2O and analyzed via HPLC (20 µl injection).
# [2] = as above; settings: freshly prepared solution 0.53 mg/ml in CH3CN, HPLC trace
# [3] = Solubility in deionized water; settings: 0.97 and 0.80 mg in 0.5 ml deionized water, sonicated about 1 minute; 1.54 mg sample needed additional 0.1 ml; upper limit not attained
# Experimental: Solubility: Deionized water (0.5 ml) was added to three samples of the 2'-MPM (1.54 mg, 0.97 mg and 0.80 mg) and the flask sonicated for approximately one (1) minute.
# [4] = Extraction from water into CH2Cl2; settings: about 1 mg in 1 ml water stirred with 1 ml CH2Cl2; residue of organic phase weighed
# Experimental: Extraction: Three samples (1.2, 1.0 and 0.98 mg) were dissolved in water (1 ml) and vigorously stirred with CH2Cl2 (1 ml). The organic phase was transferred to a clean, tared vial and concentrated in vacuo. The residue was weighed and compared to the theoretical input to gauge the effectiveness of the extraction procedure. Average return for this extraction was about 44% of theoretical.
# [5] = Aqueous stability of the prodrug in H2O and 0.2M NaCl
# Experimental: Aqueous Stability: The stability of the prodrug in H2O and 0.2M NaCI was examined at both room temperature and under refrigerated conditions. Samples in H2O (0.54 mg in 2 ml) and NaCI (0.57 mg in 2 ml) at room temperature were examined at two minute time intervals (0 through 12 minutes), 2 hours and 24 hours. […] At 4°C the product concentration was unchanged at 24 and 48 hours but decreased to 90% after 72 hours. […] At 4°C the product concentration was unchanged at 24 hours, was 91% at 48 hours and was 88% at 72 hours.
# [6] = freshly prepared solution 0.53 mg/ml in CH3CN, HPLC trace
compound,measurement,setting,value
"CC(=O)O[C@H]1C(=O)[C@@]2(C)[C@H]([C@H](OC(=O)c3ccccc3)[C@]3(O)C[C@H](OC(=O)[C@H](Oc4cccc[n+]4C)[C@@H](NC(=O)c4ccccc4)c4ccccc4)C(C)=C1C3(C)C)[C@]1(OC(C)=O)CO[C@@H]1C[C@@H]2O [2'-MPA, Paclitaxel 2'-Methylpyridinium Acetate]",2'-MPA %,"[1]; 4°C, 1 Hour",85%
same,Paclita. %,"[1]; 4°C, 1 Hour",15%
same,2'-MPA %,"[1]; 4°C, 2 Weeks",79%
same,Paclita. %,"[1]; 4°C, 2 Weeks",9%
same,Unkno. %,"[1]; 4°C, 2 Weeks",10%
same,2'-MPA %,"[1]; 4°C, 6 Hours",75%
same,Paclita. %,"[1]; 4°C, 6 Hours",11%
same,Unkno. %,"[1]; 4°C, 6 Hours",14%
same,2'-MPA %,"[1]; 4°C, 18 Hours",73%
same,Paclita. %,"[1]; 4°C, 18 Hours",10%
same,Unkno. %,"[1]; 4°C, 18 Hours",17%
same,2'-MPA %,"[1]; 4°C, 18 Hours, listed as MPA salt",73%
same,2'-MPA %,"[1]; 4°C, 42 Hours",79%
same,Paclita. %,"[1]; 4°C, 42 Hours",9%
same,Unkno. %,"[1]; 4°C, 42 Hours",12%
same,2'-MPA %,"[1]; 4°C, 66 Hours",73%
same,Paclita. %,"[1]; 4°C, 66 Hours",11%
same,Unkno. %,"[1]; 4°C, 66 Hours",16%
same,2'-MPA %,"[1]; Room Temperature, 1 Hour",78%
same,Paclita. %,"[1]; Room Temperature, 1 Hour",14%
same,Unkno. %,"[1]; Room Temperature, 1 Hour",8%
same,2'-MPA %,"[1]; Room Temperature, 6 Hours",78%
same,Paclita. %,"[1]; Room Temperature, 6 Hours",14%
same,Unkno. %,"[1]; Room Temperature, 6 Hours",8%
same,2'-MPA %,"[1]; Room Temperature, 18 Hours",69%
same,2'-MPA %,"[1]; Room Temperature, 42 Hours",73%
same,Paclita. %,"[1]; Room Temperature, 42 Hours",17%
same,Unkno. %,"[1]; Room Temperature, 42 Hours",10%
same,2'-MPA %,"[1]; Room Temperature, 66 Hours",79%
same,Paclita. %,"[1]; Room Temperature, 66 Hours",13%
same,Unkno. %,"[1]; Room Temperature, 66 Hours",8%
same,2'-MPA %,"[1]; Room Temperature, 90 Hours",73%
same,Paclita. %,"[1]; Room Temperature, 90 Hours",15%
same,Unkno. %,"[1]; Room Temperature, 90 Hours",12%
same,2'-MPA peak,[1]; [6],75%
same,Unknown peak,[1]; [6],10%
same,Paclitaxel peak,[2],15%
"CC(=O)O[C@H]1C(=O)[C@@]2(C)[C@H]([C@H](OC(=O)c3ccccc3)[C@]3(O)C[C@H](OC(=O)[C@H](Oc4cccc[n+]4C)[C@@H](NC(=O)c4ccccc4)c4ccccc4)C(C)=C1C3(C)C)[C@]1(OC(C)=O)CO[C@@H]1C[C@@H]2O [Paclitaxel 2'-MPM, Paclitaxel-2'-Methylpyridinium Mesylate]",Solubility,[3],Solution was attained
same,Average return for this extraction,[4],about 44 % of theoretical
same,product concentration,"[5]; H2O, 4°C, 24 hours",unchanged
same,product concentration,"[5]; H2O, 4°C, 48 hours",unchanged
same,product concentration,"[5]; H2O, 4°C, 72 hours",90%
same,product concentration,"[5]; H2O, room temperature, 2 hours",relatively unchanged
same,product concentration,"[5]; H2O, room temperature, 24 hours",56%
same,stability in aqueous solution,"[5]; aqueous solution, 4°C, 24 hours (summary of Example 2)",unchanged
same,"stability in aqueous solution, degraded to","[5]; aqueous solution, 4°C, 72 hours (summary of Example 2)",88-91%
same,product concentration,"[5]; saline solution (0.2M NaCl), 4°C, 24 hours",unchanged
same,product concentration,"[5]; saline solution (0.2M NaCl), 4°C, 48 hours",91%
same,product concentration,"[5]; saline solution (0.2M NaCl), 4°C, 72 hours",88%
same,drop of product concentration,"[5]; saline solution (0.2M NaCl), room temperature, 2 hours",1-2%
same,product concentration,"[5]; saline solution (0.2M NaCl), room temperature, 24 hours",70%
same,product concentration,"[5]; saline solution (0.2M NaCl), room temperature, first ten minutes",no apparent change
